OC(CN1CCN(CC(O)(Cn2cncn2)c2ccc(F)cc2F)CC1)(Cn1cncn1)c1ccc(F)cc1F (stereo not given)
solubility (mole fraction)
Conditions | 293.15 K | 298.15 K | 303.15 K | 308.15 K | 313.15 K
in ethanol | 0.000305 | 0.00036 | 0.000401 | 0.000463 | 0.000548
in n-hexane | 9.77e-07 | 1.17e-06 | 1.37e-06 | 1.62e-06 | 1.92e-06
in n-octanol | 6.23e-05 | 7.87e-05 | 0.000101 | 0.000126 | 0.00016

Reference: BigSolDB 2.1
